Results: patent publication US20120115742A1, “METHODS FOR IDENTIFICATION” (Cambridge Enterprise Limited, priority 2009, published 2012)

Key:
[1] = test system: fetal rat pituicytes; experiment: Rat pituicyte GH suppression assay; assay type: cell-based; conditions: Table 3
Description: Two different assays for “classical” sstr2 functions were adopted: (1) cultured foetal rat pituitary cells secreted growth hormone which is inhibited by sstr2 agonists in a dose-dependent fashion and (2) selected glucose-sensitive sub-clones of the human Panc-1 cell line secrete insulin which is inhibited by sstr2 agonists in a dose-dependent fashion.
Methods: Cultures of fetal rat pituicytes were established exactly as previously described (Murray et al. (2004) J. Clin. Endocrinol. Metab. 89:3027-32) by enzymatic dispersion. After 48 hrs in low glucose DMEM plus 10% FCS, cells in 48 well plates (5×10^4 cells per well) were washed for 4 hrs in serum-free DMEM and then incubated with test agents at various concentrations for a further 24 hrs in serum-free DMEM. At the end of this period, the conditioned medium was harvested, any cell debris removed by centrifugation and assayed for […] using a commercially available ELISA (Linco; cat# EZRMGH-45K) in accordance with the manufacturer's instructions.
Results were reported as the mean SD, expressed as the fold change from cells in the presence of vehicle only.

[2] = test system: rat peripheral blood leukocytes; experiment: Rat chemokine-induced PBMC migration assay; assay type: cell-based
Protocol: Similarly, where human Panc-2H4 cells are used to determine the effect of agents on classical sstr2 targets, the result is compared with the effect of the same agents on chemokine-induced migration of human THP-1 cells. […] For this reason, the ratio of “classical” to “BSCI” activity in Table 3 is calculated separately for rat and human.

[3] = target: T1, sstr2 (Homo sapiens, UniProt P30874); experiment: [3H]-BN83250 equilibrium binding to THP-1 cells (Scatchard/competition); conditions: THP-1 cells, 2 hours at 4° C.; read-out: affinity (Scatchard analysis)
T1 construct: with 1×10^6 THP-1 cells in Gey's Balanced Salt Solution, 10 nM [^3H]-BN83250; endogenous in cells; host or cells: THP-1 cells (intact cells, 4 °C)
T1 sequence (P30874 whole entry): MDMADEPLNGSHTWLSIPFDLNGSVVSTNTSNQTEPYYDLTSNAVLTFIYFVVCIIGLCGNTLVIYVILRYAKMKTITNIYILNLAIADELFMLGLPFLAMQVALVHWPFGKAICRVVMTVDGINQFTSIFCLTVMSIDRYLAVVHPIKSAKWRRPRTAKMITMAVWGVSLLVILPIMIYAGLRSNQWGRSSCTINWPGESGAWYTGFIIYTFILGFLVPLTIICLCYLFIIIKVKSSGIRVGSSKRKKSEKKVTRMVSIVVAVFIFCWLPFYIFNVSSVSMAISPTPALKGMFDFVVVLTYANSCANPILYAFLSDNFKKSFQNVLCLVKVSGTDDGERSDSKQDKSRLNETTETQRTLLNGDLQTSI
Protocol: Methods: [^3H]-BN83250 was synthesesized from (S,E)-3-(2′,2′-dimethyldodec-4′-enoylamino)-caprolactam by catalytic hydrogenation using tritium gas over a palladium catalyst (CRB Ltd, Cleveland, UK), yielding the tritiated product at a concentration of 270 μM in ethanol with a specific activity of 220Ci/mmol. The (S,E)-3-(2′,2′-dimethyldodec-4′-enoylamino)-caprolactam was prepared as follows: (S,S)-3-amino-caprolactam hydro-pyrrolidine-5-carboxylate (10 mmol) and Na2CO3 (30 mmol) in water (30 ml) were added to a solution of 2,2-dimethyl-dodec-4-enoyl chloride (10 mmol) in dichloromethane (30 ml) at ambient temperature and the reaction was stirred for 12 hours. The organic layer was then separated and the aqueous phase was extracted with additional dichloromethane (2×25 ml). The combined organic layers were dried over Na2CO3 and reduced in vacuo. The residue was purified by silica column chromatography (1:1 EtOAc:hexanes to EtOAc) to give (S,E)-3-(2′,2′-dimethyl-dodec-4′-enoyl)amino-caprolactam as a colourless oil (2.12 g, 63%). The radiolabelled compound was stored in the dark at 4° C. until required. Prior to use the specific activity was adjusted by addition of unlabelled BN83250.
For the analysis of binding, individual reactions were set up (in triplicate for each condition), with 1×10^6 THP-1 cells in Gey's Balanced Salt Solution, 10 nM [^3H]-BN83250 (at 50 Ci/mmol) and various concentrations of (S)-3(2′2′-dimethylpropionoylamino)-tetrahydropyridin-2-one (10 pM to 10 μM). Excess (100 μM) unlabelled BN83250 was used to determine the level of non-specific binding. After 2 hours at 4° C. (conditions previously shown to achieve equilibrium binding, and which prevent uptake of the radioligand that would result in an over-estimate of binding) excess label was washed away by centrifugation (3 washes with 5 ml of Gey's Balanced Salt Solution) and the bound radioactivity was determined by scintillation counting of the solubilised cell pellet.
Hits from this assay were confirmed using conventional Scatchard analysis, exactly as described in Example 4 above.

[4] = test system: THP-1 cells; experiment: MCP-1 induced THP-1 cell migration (Transwell/ChemoTx)
Protocol: Leukocyte migration was measured using the 96-well format micro Transwell® assay system from Neuroprobe (Gaithersburg, Md., USA). In principle, this assay consists of two chambers separated by a porous membrane. The chemoattractant is placed in the lower compartment and the cells are placed in the upper compartment.
First, the cell suspension to be placed in the upper compartment was prepared. The THP-1 cells were pelleted by centrifugation (770×g; 4 mins) and washed with Geys Balanced Salt Solution with 1 mg/ml BSA (GBSS+BSA). This wash was then repeated, and the cells re-pelleted before being resuspended in a small volume of GBSS+BSA for counting, for example using a standard haemocytometer.
This ensured that there were 100,000 THP-1 cells in each 25 μl of the solution to be placed in the upper chamber of the plate.
To the third pot, GBSS+BSA plus vehicle as appropriate was added so that the volumes in three pots are equal, acting as a control.
Next, the chemoattractant solution to be placed in the lower compartment was prepared. […] This solution was divided into three pots, as for the cell suspension. To one pot, the BSCI was added to the same final concentration as was added to the cell suspension, in the second pot the BSCI and the sstr2 antagonist were both added at the same concentration as previously added to the cell suspension, while to the remaining pot GBSS+BSA plus vehicle as appropriate was added so that the volumes in the three pots were equal.
Once the chemoattractant solutions for the lower wells and cell solutions for the upper chambers were prepared, the migration chamber was assembled. 29 μl of the appropriate chemoattractant solution was placed into the lower well of the chamber. Assays were performed with at least triplicate determinations of each condition. Once all the lower chambers were filled, the porous membrane was applied to the chamber in accordance with the manufacturer's instructions. Finally, 25 μl of the appropriate cell solution was applied to each upper chamber. A plastic lid was placed over the entire apparatus to prevent evaporation.
The assembled chamber was incubated at 37° C., 5% CO2, for 2 hours.
At the end of the incubation, the liquid cell suspension was gently removed from the upper chamber, 20 μl of ice-cold 20 mM EDTA in PBS was added to the upper chamber, and the apparatus was incubated at 4° C. for 15 mins. This procedure caused any cells adhering to the underside of the membrane to fall into the lower chamber.
After this incubation the filter was carefully flushed with GBSS+BSA to wash off the EDTA, and then the filter was removed.
The number of cells migrated into the lower chamber under each condition can then be determined by a number of methods, including direct counting, labelling with fluorescent or radioactive markers or through the use of a vital dye. Typically, we utilised the vital dye MTT. 3 μl of stock MTT solution were added to each well, and then the plate was incubated at 37° C. for 1-2 hours during which time dehydrogenase enzymes within the cells converted the soluble MTT to an insoluble blue formazan product that could be quantified spectrophotometrically.
In parallel, an 8-point standard curve was set up. Starting with the number of cells added to each upper chamber (100,000) and going down in 2-fold serial dilutions in GBSS+BSA, the cells were added to a plate in 25 with 3 μl of MTT stock solution added. The standard curve plate was incubated along side the migration plate. At the end of this incubation, the liquid was carefully removed from the lower chambers, taking care not to disturb the precipitated formazan product.
The MCP-1 stimulated migration was determined by subtracting the average number of cells that reached the lower compartment in wells where no MCP-1 was added from the average number of cells that reached the lower compartment where MCP-1 was present at 25 ng/ml.

(S)-3-(2′,2′-dimethyldodecanoyl)amino-caprolactam [BN83250]
EC50 ([1]; read-out: Rat pituicyte GH suppression assay ED50): 320 nM
Rat pituicyte GH suppression assay Max effect ([1]; suppression compared to vehicle): 63%
“Classical”:“BSCI” potency ratio, Rat ([2]; PBMC migration ED50 versus pituicyte GH ED50): 0.0009
Rat chemokine-induced PBMC migration assay Max effect ([2]; Table 3): 100%
Kd [3]: ~80 nM
“Classical”:“BSCI” potency ratio, Human ([4]; THP-1 migration ED50 versus Panc-2H4 insulin ED50): <0.00009
Human chemokine-induced THP-1 migration assay Max effect ([4]; Table 3): 100%
Chemokine-induced THP-1 cell migration assay Max Effect ([4]; Table 5): 100%
RATIO ([4]; Table 5, migration ED50 versus insulin ED50): <0.00009
